A word on the IC50: it is the point on the concentration scale where inhibition reaches its midpoint.

Structures are written as SMILES.

Here are results for three compounds from ChEMBL document CHEMBL2074436, “Hepatobiliary elimination of the peroxisome proliferator nafenopin by conjugation and subsequent ATP-dependent transport across the canalicular membrane” (Biochem Pharmacol, 1994).

In data set [1] the target is T1, ATP-binding cassette sub-family C member 2 (Rattus norvegicus, UniProt Q63120). Kind of data set: TP_TRANSPORTER: uptake in bile canalicular membrane vesicles from Wistar/TR- rat. The format is functional, cell membranes, Bile canalicular membrane vesicle.
Data set [2] has as its target T1, ATP-binding cassette sub-family C member 2. As to the kind of experiment: TP_TRANSPORTER: inhibition of Naf-GlcA uptake (Naf-GlcA: 0.1 uM) in bile canalicular membrane vesicles of Wistar rat. The format is functional, cell membranes, Bile canalicular membrane vesicle.

T1 sequence (Q63120 whole entry): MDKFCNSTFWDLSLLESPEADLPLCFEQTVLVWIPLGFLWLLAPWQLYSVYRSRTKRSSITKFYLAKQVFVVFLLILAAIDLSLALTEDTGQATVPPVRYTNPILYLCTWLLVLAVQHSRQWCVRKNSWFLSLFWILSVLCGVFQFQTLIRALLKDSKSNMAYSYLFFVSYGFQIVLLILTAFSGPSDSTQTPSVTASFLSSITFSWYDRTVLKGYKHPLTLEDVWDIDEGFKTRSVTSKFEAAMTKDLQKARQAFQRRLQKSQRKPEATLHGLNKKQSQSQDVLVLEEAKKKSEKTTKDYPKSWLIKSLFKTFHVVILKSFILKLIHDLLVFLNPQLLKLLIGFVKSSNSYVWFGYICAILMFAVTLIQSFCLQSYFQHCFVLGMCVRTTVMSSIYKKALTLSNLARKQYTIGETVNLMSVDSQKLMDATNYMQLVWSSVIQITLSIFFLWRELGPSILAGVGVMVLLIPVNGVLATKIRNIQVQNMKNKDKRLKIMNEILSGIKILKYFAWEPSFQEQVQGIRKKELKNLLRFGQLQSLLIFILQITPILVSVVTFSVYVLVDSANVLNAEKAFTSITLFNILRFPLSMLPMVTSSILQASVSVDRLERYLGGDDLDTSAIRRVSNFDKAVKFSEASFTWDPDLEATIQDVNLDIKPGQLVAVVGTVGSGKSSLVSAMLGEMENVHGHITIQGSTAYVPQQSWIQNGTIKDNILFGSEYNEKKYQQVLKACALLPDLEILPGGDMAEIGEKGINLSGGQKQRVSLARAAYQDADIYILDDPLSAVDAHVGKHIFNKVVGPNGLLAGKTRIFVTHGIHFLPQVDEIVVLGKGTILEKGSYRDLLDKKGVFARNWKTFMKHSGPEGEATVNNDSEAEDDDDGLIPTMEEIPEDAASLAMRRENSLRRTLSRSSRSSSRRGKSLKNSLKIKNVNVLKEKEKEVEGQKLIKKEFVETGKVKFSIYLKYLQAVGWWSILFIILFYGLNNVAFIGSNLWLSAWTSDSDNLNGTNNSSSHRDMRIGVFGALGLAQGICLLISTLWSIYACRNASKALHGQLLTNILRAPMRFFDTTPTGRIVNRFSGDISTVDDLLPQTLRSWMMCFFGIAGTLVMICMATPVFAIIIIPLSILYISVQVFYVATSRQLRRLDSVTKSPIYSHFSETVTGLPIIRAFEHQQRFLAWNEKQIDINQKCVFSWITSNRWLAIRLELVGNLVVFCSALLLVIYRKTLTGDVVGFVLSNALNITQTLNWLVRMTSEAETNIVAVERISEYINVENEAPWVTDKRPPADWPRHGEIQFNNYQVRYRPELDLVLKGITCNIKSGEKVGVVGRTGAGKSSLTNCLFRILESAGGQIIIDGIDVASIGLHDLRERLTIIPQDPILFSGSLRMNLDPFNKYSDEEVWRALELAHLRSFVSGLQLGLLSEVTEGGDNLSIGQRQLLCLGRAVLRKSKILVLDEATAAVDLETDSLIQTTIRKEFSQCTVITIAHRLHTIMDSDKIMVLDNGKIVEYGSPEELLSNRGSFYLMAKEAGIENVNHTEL

`CC(C)(Oc1ccc(C2CCCc3ccccc32)cc1)C(=O)O[C@@H]1O[C@H](O)[C@@H](O)[C@H](O)[C@H]1O` (stereo partly drawn) [NAFENOPIN GLUCURONIDE]: the Activity entry in data set [1] is “substrate [+]”. Take `N[C@@H](CCC(=O)N[C@H](CSc1ccc([N+](=O)[O-])cc1[N+](=O)[O-])C(=O)NCC(=O)O)C(=O)O`: in data set [2], the IC50 was 12 µM. Still for that read-out and setting: the value for `CCCCC/C=C\C\C=C/C=C/C=C/[C@@H](SC[C@@H](NC(=O)CC[C@H](N)C(=O)O)C(=O)NCC(=O)O)[C@@H](O)CCCC(=O)O` [LEUKOTRIEN C4] was 0.2 µM.
